According to patent publication US7772241B2, “Variolin derivatives and their use as antitumor agents” (Pharma Mar S.A., priority 2001, dated 2010):
Like-named read-outs stand apart in the source and are kept apart here.

What was measured:
[1] = test system: A-549; assay: Inhibition of cells growth by colorimetric (SRB) assay, A-549; settings: for GI50 / CC50: Homo sapiens, A549, 48 h
How it was run: (§1)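 Read-out is sulforhodamine B protein stain (OD 490 nm) after cold TCA fixation, following 48 h continuous exposure to samples spanning 10 to 10^−8 μg/ml.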

[2] = test system: SK-MEL-28; assay: Inhibition of cells growth by colorimetric (SRB) assay, SK-MEL-28; settings: for GI50 / CC50: Homo sapiens, SK-MEL-28, 48 h
How it was run: as §1

[3] = test system: HT-29; assay: Inhibition of cells growth by colorimetric (SRB) assay, HT-29; settings: for GI50 / CC50: Homo sapiens, HT-29, 48 h
How it was run: as §1

[4] = test system: LoVo; assay: Inhibition of cells growth by colorimetric (SRB) assay, LoVo; settings: for GI50 / CC50: Homo sapiens, LoVo, 48 h
How it was run: as §1

[5] = test system: LoVo-Dox; assay: Inhibition of cells growth by colorimetric (SRB) assay, LoVo-Dox; settings: for GI50 / CC50: Homo sapiens, 48 h
How it was run: as §1

[6] = test system: DU-145; assay: Inhibition of cells growth by colorimetric (SRB) assay, DU-145; settings: for GI50 / CC50: Homo sapiens, DU-145, 48 h
How it was run: as §1

[7] = test system: LNCaP; assay: Inhibition of cells growth by colorimetric (SRB) assay, LNCaP; settings: for GI50 / CC50: Homo sapiens, LNCaP, 48 h
How it was run: as §1

[8] = test system: SK-BR-3; assay: Inhibition of cells growth by colorimetric (SRB) assay, SK-BR-3; settings: for GI50 / CC50: Homo sapiens, SK-BR-3, 48 h
How it was run: as §1

[9] = test system: IGROV-1; assay: Inhibition of cells growth by colorimetric (SRB) assay, IGROV-1; settings: for GI50 / CC50: Homo sapiens, IGROV-1, 48 h
How it was run: as §1

[10] = test system: IGROV-ET; assay: Inhibition of cells growth by colorimetric (SRB) assay, IGROV-ET; settings: for GI50 / CC50: Homo sapiens, 48 h
How it was run: as §1

[11] = test system: HeLa; assay: Inhibition of cells growth by colorimetric (SRB) assay, HeLa
How it was run: as §1

[12] = test system: PANC-1; assay: Inhibition of cells growth by colorimetric (SRB) assay, PANC-1; settings: for GI50 / CC50: Homo sapiens, PANC-1, 48 h
How it was run: as §1

[13] = Inhibition of cells growth by colorimetric (SRB) assay, HMEC1; settings: human, HMEC1 cells, LC50 H-MEC-1, SRB assay, 48 hours exposure
[14] = test system: HMEC1; assay: as above

CSc1nccc(-c2c3cccnc3n3c(N(C(C)=O)C(C)=O)nccc23)n1 [Compound 26]
GI50 ([1]; read-out: A-549 GI50, SRB assay, 48 hours exposure): 6.88 µM | CC50 ([1]; read-out: A-549 LC50, SRB assay, 48 hours exposure): 21.5 µM | GI50 ([1]; read-out: GI50 A-549, SRB assay, 48 hours exposure): 0.706 µM | CC50 ([1]; read-out: LC50 A-549, SRB assay, 48 hours exposure): 16.5 µM | A-549 TGI ([1]; SRB assay, 48 hours exposure): 1.22E−05 | TGI A-549 ([1]; SRB assay, 48 hours exposure): 2.93E−06 | GI50 ([2]; read-out: GI50 MEL-28, SRB assay, 48 hours exposure): 0.273 µM | CC50 ([2]; read-out: LC50 MEL-28, SRB assay, 48 hours exposure): 10.1 µM | GI50 ([2]; read-out: MEL-28 GI50, SRB assay, 48 hours exposure): 0.202 µM | CC50 ([2]; read-out: MEL-28 LC50, SRB assay, 48 hours exposure): 1.29 µM | MEL-28 TGI ([2]; SRB assay, 48 hours exposure): 5.38E−07 | TGI MEL-28 ([2]; SRB assay, 48 hours exposure): 2.88E−06 | GI50 ([3]; read-out: GI50 HT-29, SRB assay, 48 hours exposure): 0.935 µM | GI50 ([3]; read-out: HT-29 GI50, SRB assay, 48 hours exposure): 1.05 µM | CC50 ([3]; read-out: HT-29 LC50, SRB assay, 48 hours exposure): 24.6 µM | CC50 ([3]; read-out: LC50 HT-29, SRB assay, 48 hours exposure): 25.5 µM | HT-29 TGI ([3]; SRB assay, 48 hours exposure): 3.47E−06 | TGI HT-29 ([3]; SRB assay, 48 hours exposure): 3.36E−06 | GI50 ([4]; read-out: GI50 LOVO, SRB assay, 48 hours exposure): 0.415 µM | CC50 ([4]; read-out: LC50 LOVO, SRB assay, 48 hours exposure): 13.4 µM | GI50 ([4]; read-out: LOVO GI50, SRB assay, 48 hours exposure): 0.525 µM | CC50 ([4]; read-out: LOVO LC50, SRB assay, 48 hours exposure): 2.03 µM | LOVO TGI ([4]; SRB assay, 48 hours exposure): 1.03E−06 | TGI LOVO ([4]; SRB assay, 48 hours exposure): 1.87E−06 | GI50 ([5]; read-out: GI50 LOVO-DOX, SRB assay, 48 hours exposure): 1.79 µM | CC50 ([5]; read-out: LC50 LOVO-DOX, SRB assay, 48 hours exposure): 25.5 µM | GI50 ([5]; read-out: LOVO-DOX GI50, SRB assay, 48 hours exposure): 6.09 µM | CC50 ([5]; read-out: LOVO-DOX LC50, SRB assay, 48 hours exposure): 19 µM | LOVO-DOX TGI ([5]; SRB assay, 48 hours exposure): 1.08E−06 | TGI LOVO-DOX ([5]; SRB assay, 48 hours exposure): 1.10E−05 | GI50 ([6]; read-out: DU-145 GI50, SRB assay, 48 hours exposure): 4.48 µM | CC50 ([6]; read-out: DU-145 LC50, SRB assay, 48 hours exposure): 18 µM | GI50 ([6]; read-out: GI50 DU-145, SRB assay, 48 hours exposure): 0.581 µM | CC50 ([6]; read-out: LC50 DU-145, SRB assay, 48 hours exposure): 14.9 µM | DU-145 TGI ([6]; SRB assay, 48 hours exposure): 8.99E−06 | TGI DU-145 ([6]; SRB assay, 48 hours exposure): 2.10E−06 | GI50 ([7]; read-out: GI50 LN-caP, SRB assay, 48 hours exposure): 0.703 µM | CC50 ([7]; read-out: LC50 LN-caP, SRB assay, 48 hours exposure): 2.28 µM | GI50 ([7]; read-out: LN-caP GI50, SRB assay, 48 hours exposure): 4.51 µM | CC50 ([7]; read-out: LN-caP LC50, SRB assay, 48 hours exposure): 17.5 µM | LN-caP TGI ([7]; SRB assay, 48 hours exposure): 8.89E−06 | TGI LN-caP ([7]; SRB assay, 48 hours exposure): 1.27E−06 | GI50 ([8]; read-out: GI50 SK-BR-3, SRB assay, 48 hours exposure): 0.278 µM | CC50 ([8]; read-out: LC50 SK-BR-3, SRB assay, 48 hours exposure): 2.53 µM | GI50 ([8]; read-out: SK-BR-3 GI50, SRB assay, 48 hours exposure): 4.18 µM | CC50 ([8]; read-out: SK-BR-3 LC50, SRB assay, 48 hours exposure): 20.7 µM | SK-BR-3 TGI ([8]; SRB assay, 48 hours exposure): 9.30E−06 | TGI SK-BR-3 ([8]; SRB assay, 48 hours exposure): 8.38E−07 | GI50 ([9]; read-out: GI50 IGROV, SRB assay, 48 hours exposure): 0.22 µM | GI50 ([9]; read-out: IGROV GI50, SRB assay, 48 hours exposure): 0.721 µM | CC50 ([9]; read-out: IGROV LC50, SRB assay, 48 hours exposure): 9.25 µM | CC50 ([9]; read-out: LC50 IGROV, SRB assay, 48 hours exposure): 9.17 µM | IGROV TGI ([9]; SRB assay, 48 hours exposure): 1.58E−07 | TGI IGROV ([9]; SRB assay, 48 hours exposure): 2.73E−06 | GI50 ([10]; read-out: GI50 IGROV-ET, SRB assay, 48 hours exposure): 1.7 µM | GI50 ([10]; read-out: IGROV-ET GI50, SRB assay, 48 hours exposure): 0.917 µM | CC50 ([10]; read-out: IGROV-ET LC50, SRB assay, 48 hours exposure): 11.4 µM | CC50 ([10]; read-out: LC50 IGROV-ET, SRB assay, 48 hours exposure): 25.5 µM | IGROV-ET TGI ([10]; SRB assay, 48 hours exposure): 1.83E−06 | TGI IGROV-ET ([10]; SRB assay, 48 hours exposure): 7.50E−06 | GI50 ([11]; Homo sapiens, HeLa, 48 h, read-out: HELA GI50, SRB assay, 48 hours exposure): 0.00197 µM | HELA TGI ([11]; SRB assay, 48 hours exposure): 6.91E−09 | GI50 ([12]; read-out: GI50 PANC-1, SRB assay, 48 hours exposure): 0.933 µM | CC50 ([12]; read-out: LC50 PANC-1, SRB assay, 48 hours exposure): 21.3 µM | GI50 ([12]; read-out: PANC-1 GI50, SRB assay, 48 hours exposure): 4.38 µM | CC50 ([12]; read-out: PANC-1 LC50, SRB assay, 48 hours exposure): 17.6 µM | PANC-1 TGI ([12]; SRB assay, 48 hours exposure): 8.79E−06 | TGI PANC-1 ([12]; SRB assay, 48 hours exposure): 4.05E−06 | CC50 at 48 h [13]: 8.28 µM | GI50 ([14]; Homo sapiens, HMEC-1, 48 h, read-out: GI50 H-MEC-1, SRB assay, 48 hours exposure): 0.446 µM | TGI H-MEC-1 ([14]; SRB assay, 48 hours exposure, in M (unit assumed)): 1.22E−06
